Laboratory results reported in patent publication EP4818187A1, “COMPOUND AND USE THEREOF” (Ganzhou Hemay Pharmaceutical, Co., Ltd, priority 2023, dated 2025).
pIC50: −log10 of the molar value.

Experiments:
[1] = test system: human gastric cancer NCI-N87; experiment: Biological Example 3: in vivo xenograft model of human gastric cancer NCI-N87; set-up: species or system Balb/c-nu nude mice; conditions: nude mice
Experimental: First, the xenograft model of human gastric cancer NCI-N87 was established subcutaneously in nude mice by inoculation with a cell-matrigel mixture. When the xenograft tumor grew to a volume of 100-300 mm^3 and maintained stable growth, the experimental animals were randomly grouped using remainder method based on the tumor volume and administered with drugs. The tumor volume was measured 2 to 3 times every week. After the dosing period was completed, the experimental animals were killed, and the subcutaneous tumors were excised and weighed. The anti-tumor activity of the drug in this model was evaluated based on relevant data of the tumor volumes and the tumor weights. Table 8: List of experimental animal groups and dosage regimens
Calculation formula of the tumor volume: volume=0.5× long diameter × short diameter^2. Relative tumor volume(RTV): RTV = Vt/ V0 [formula]
V0 is the tumor volume measured at the time of grouping for dosing (i.e., d0), and Vt is the tumor volume measured each time. Relative tumor proliferation rate(T/C): T/C = TRTV /CRTV × 100% [formula]
T is the mean RTV of the test compound, and C is the mean RTV of the model control group. [formula] Body weight change percentage = Wn /W0 × 100% [formula]
Wn: mean body weight of each group of experimental animals on day n, and W0: mean body weight of each group of experimental animals on day 0.
The purchased experimental animals were subjected to balanced feeding for 3 days. A xenograft model was established in nude mice by inoculation with a cell-matrigel mixture: conventionally cultured NCI-N87 cells in the logarithmic growth phase were sampled, digested, collected, and adjusted with PBS to a cell density of 6×10^7 cells/mL. In an ice water bath, the cell suspension was slowly added to an equal volume of matrigel, the system was fully mixed, and then the xenograft model was established by subcutaneous inoculation in the right armpit of male nude mice, with 0.15 mL/mouse and a cell inoculum size of approximately 4.5 million cells/mouse.
The tumor growth of the model animals was regularly observed. When the mean tumor volume of the model nude mice reached about 100-300 mm^3, the experimental animals were randomly grouped using the remainder method based on the tumor volume, and administered with drugs. The day on which the animals were grouped was day 0. After grouping, drugs were administered to each group according to Table 8. The dosage or dosing period can be appropriately adjusted based on the tumor growth and the animal state. After administration, the tumor volumes of the experimental animals were measured 2-3 times every week until the experiment was completed. After the dosing period was completed, the experimental animals were killed, and the subcutaneous tumors were excised and weighed. The anti-tumor activity of each compound in this model was evaluated based on relevant data of the tumor volumes and tumor weights. Table 9: Effect on growth of xenograft model of human gastric cancer NCI-N87
The test was performed based on the dosage regimen in Table 10, following the method in Biological Example 2. Table 10: List of dosage regimens

[2] = test system: HCT116 (human colorectal cancer); experiment: In vitro inhibitory effect against human tumor cells (MTT); type: cell-based; conditions: HCT-116, 72 h, 3 days
[3] = test system: NCI-N87 (human gastric cancer cell); experiment: as above; type: cell-based; conditions: NCI-N87, 72 h, 3 days
[4] = test system: SK-OV-3 (human ovarian cancer); experiment: as above; type: cell-based; conditions: SK-OV-3, 72 h, SK-OV-3, MTT, 3 days
[5] = test system: Fadu (human pharyngeal squamous cell carcinoma); experiment: as above; type: cell-based; conditions: 72 h, 3 days
[6] = test system: NCI-H1975 (human non-small cell lung cancer); experiment: as above; type: cell-based; conditions: NCI-H1975, 72 h, 3 days
[7] = With addition of βGU (1 µg/well)

In the case of `CC[C@H](C)[C@@H]([C@@H](CC(=O)N1CCC[C@H]1[C@H](OC)[C@@H](C)C(=O)N[C@H](C)[C@@H](OCc1ccc(O[C@@H]2O[C@H](C(=O)[O-])[C@@H](O)[C@H](O)[C@H]2O)cc1OCc1cn(CCCCCC(=O)Nc2ccc(-c3ccc(/N=N/c4ccc5c(S(=O)(=O)[O-])cc(S(=O)(=O)[O-])c(N)c5c4O)c(C)c3)cc2C)nn1)c1ccccc1)OC)N(C)C(=O)[C@@H](NC(=O)[C@H](C(C)C)N(C)C)C(C)C.[Na+].[Na+].[Na+]` [Example compound 2], the “Final body weight change (%)” value ([1]; 15 mg/kg i.v. qw×2) was 11.4%, the “Maximum body weight change (%)” value ([1]; 15 mg/kg i.v. qw×2) was 11.4, d26% and the “Relative volume RTV (x±S.D.)” value ([1]; 15 mg/kg i.v. qw×2) was 0.48±0.07. For the same compound, the “T/C (%)” value ([1]; 15 mg/kg i.v. qw×2) was 5.9%, the “Tumor inhibition rate (%)” value ([1]; 15 mg/kg i.v. qw×2) was 96.4% and the “Tumor weight (g, x±S.D.)” value ([1]; 15 mg/kg i.v. qw×2) was 0.048 ± 0.009 g. The “Body weight (g, x±S.D.) End” value ([1]; 15 mg/kg i.v. qw×2, End) was 26.9 ± 1.3 g, the “Body weight (g, x±S.D.) Start” value ([1]; 15 mg/kg i.v. qw×2, Start) was 24.2 ± 1.5 g and the pIC50 [2, 7] was 8.21. The pIC50 ([2]; βGU-free) was 6.84, the pIC50 [3, 7] was 8.25 and the pIC50 ([3]; βGU-free) was 7.09. It also gave a pIC50 [4, 7] of 8.21, a pIC50 ([4]; βGU-free) of 6.68 and a pIC50 [5, 7] of 8.57. For the same compound, the pIC50 ([5]; βGU-free) was 7.42, the pIC50 [6, 7] was 8.37 and the pIC50 ([6]; βGU-free) was 6.94.
